{"source": "patent EP0816375A1", "about": "“GLYCOCONJUGATES OF OPIATED SUBSTANCES” (ROLABO SL, priority 1995, dated 1997)", "key": {"Male Sprague-Dawley rats": {"test_system": "Male Sprague-Dawley rats", "experiment": "antinociceptive tests: tail flick (tail immersion) test and paw pressure test", "type": "in vivo", "settings": "for degree of analgesia: intraperitoneally administered, codeine 5 mg/Kg compared with compound of example 26", "source_text": "The compounds of the invention may be compared with the unmodified parent opiates in standard antinociceptive tests, i.e. in terms of potency and duration of action. For example, phamacological tests may be effected to examine the effects of the compounds of the invention on suppressing pain associated to nocius stimuli induced in laboratory animals. Thus, these compounds can be tested by measuring the time treated animals are insensitive to a given painful stimuli.\nIn spite of the different classes among the compounds of the invention which can be appreciated in accordance to their chemical structure, all are pain-related substances and therefore can be examined on the tail immersion and paw pressure tests as follows.\nMale Sprague-Dawley rats weighing 200 g are used. They are housed singly in a room with controlled temperature 21 °C on a 12h light-dark cycle and given free access to food and water.\nThe tail flick test, is conducted as described by D'Amour F.E. and Smith D.L. in A method for determining loss of pain sensations, J.Pharmacol. Exp. Ther. 72,74, 1941.\nMechanical nociceptive thresholds are determined by the paw pressure test on the left hind paw as described in the literature (Randall L.O. and Selito J.J. A method for measurement of analgesic activity on inflamed tissue, Arch. Int. Pharmacodyn. Ther. 1957, 11, 409-419.). Pain thresholds are measured with an analgesymeter. The apparatus is set up to apply a force of 0-1000 g increasing from zero at a rate of 64 g/s. The nociceptive threshold is taken as the point at which the rat vocalize or struggle vigorously."}, "[1]": {"settings": "blood of patients taking morphine; cited from earlier work"}, "[2]": {"settings": "cited from earlier work; for analgesic activity: compared with the parent drug morphine"}}, "data": [{"smiles": "COc1ccc2c3c1O[C@H]1[C@@H](O)C=C[C@H]4[C@@H](C2)N(C)CC[C@@]341", "note": "[codeine]", "values": [{"measurement": "degree of analgesia", "setting": "Male Sprague-Dawley rats", "value": "the same degree of analgesia as compound of example 26"}]}, {"smiles": "CCCCCCCCNC(=O)[C@H]1O[C@@H](Oc2ccc3c4c2O[C@H]2[C@@H](O)C=C[C@H]5[C@@H](C3)N(C)CC[C@@]452)[C@H](O)[C@@H](O)[C@@H]1O", "note": "[Example 1, 3-Morphinyl n-octyl-(β-D-glucopyranosyl)-uronamide acetate]", "values": [{"measurement": "analgesia", "setting": "Male Sprague-Dawley rats; intraperitoneal administration, dosis of 0.1 mg/Kg, maximal antinociceptive response", "value": 100, "unit": "%"}]}, {"smiles": "CN1CC[C@]23c4c5ccc(O)c4O[C@H]2[C@@H](O)C=C[C@H]3[C@H]1C5", "note": "[morphine]", "values": [{"measurement": "analgesia", "setting": "Male Sprague-Dawley rats; rat, in vivo, ip, 5 mg/kg", "value": "65-75%"}]}, {"smiles": "COc1ccc2c3c1O[C@H]1[C@@H](O[C@@H]4O[C@H](CO)[C@@H](O)[C@H](O)[C@H]4O)C=C[C@H]4[C@@H](C2)N(C)CC[C@@]341", "note": "[Example 26, 6-Codeinyl-β-D-glucopyranoside acetate]", "values": [{"measurement": "degree of analgesia", "setting": "Male Sprague-Dawley rats", "value": "the same degree of analgesia"}]}, {"smiles": "CN1CC[C@]23c4c5ccc(O[C@@H]6O[C@H](C(=O)O)[C@@H](O)[C@H](O)[C@H]6O)c4O[C@H]2[C@@H](O)C=C[C@H]3[C@H]1C5", "note": "[Example M3G, Morphine 3-glucuronide]", "values": [{"measurement": "analgesia", "setting": "Male Sprague-Dawley rats; intraperitoneal administration, dosis of 1 mg/Kg, same effect as morphine 5 mg/Kg", "value": "65-75%"}, {"measurement": "concentration in blood relative to morphine", "setting": "[1]", "value": "approximately 20 fold"}, {"measurement": "analgesic activity", "setting": "[2]", "value": "not analgesic"}]}, {"smiles": "CN1CC[C@]23c4c5ccc(O)c4O[C@H]2[C@@H](O[C@@H]2O[C@H](C(=O)O)[C@@H](O)[C@H](O)[C@H]2O)C=C[C@H]3[C@H]1C5", "note": "[Example M6G, Morphine 6-glucuronide]", "values": [{"measurement": "concentration in blood relative to morphine", "setting": "[1]", "value": "two fold higher than morphine"}, {"measurement": "analgesic activity", "setting": "[2]", "value": "several times more active than the parent drug"}, {"measurement": "analgesic activity relative to morphine", "setting": "[2]; injected intrathecally", "value": "much more active than morphine"}]}]}
